Measurements reported in ChEMBL document CHEMBL1146437, “Asterlingulatosides C and D, cytotoxic triterpenoid saponins from Aster lingulatus” (J Nat Prod, 1997).

tested on: HL-60; assay: Cytotoxicity against human HL60 cells assessed as inhibition of [3H]thymidine incorporation; format: functional, cell-based

SMILES	IC50
CC1(C)CC[C@]2(C(=O)O[C@@H]3OC[C@H](O)[C@H](O)[C@H]3O)[C@H](O)C[C@]3(C)C(=CC[C@@H]4[C@@]5(C)CC[C@H](O[C@@H]6O[C@H](CO)[C@@H](O)[C@H](O)[C@H]6O)C(C)(C)[C@@H]5CC[C@]43C)[C@@H]2C1 [ASTERLINGULATOSIDE A]	39 µM
C[C@@H]1O[C@@H](O[C@H]2[C@H](OC(=O)[C@]34CCC(C)(C)C[C@H]3C3=CC[C@@H]5[C@@]6(C)CC[C@H](O[C@@H]7O[C@H](CO)[C@@H](O)[C@H](O)[C@H]7O)C(C)(C)[C@@H]6CC[C@@]5(C)[C@]3(C)C[C@H]4O)OC[C@H](O)[C@@H]2O)[C@H](O)[C@H](O)[C@H]1O [ASTERLINGULATOSIDE B]	70.4 µM
C[C@@H]1O[C@@H](O[C@H]2[C@H](OC(=O)[C@]34CCC(C)(C)C[C@H]3C3=CC[C@@H]5[C@@]6(C)CC[C@H](O[C@@H]7O[C@H](CO)[C@@H](O)[C@H](O)[C@H]7O)C(C)(C)[C@@H]6CC[C@@]5(C)[C@]3(C)C[C@H]4O)OC[C@H](O)[C@@H]2O)[C@H](O)[C@H](O)[C@H]1O[C@@H]1OC[C@@H](O)[C@H](O)[C@H]1O [ASTERLINGULATOSIDE C]	8.8 µM
C[C@@H]1O[C@@H](O[C@H]2[C@H](OC(=O)[C@]34CCC(C)(C)C[C@H]3C3=CC[C@@H]5[C@@]6(C)CC[C@H](O[C@@H]7O[C@H](CO)[C@@H](O)[C@H](O)[C@H]7O)C(C)(C)[C@@H]6CC[C@@]5(C)[C@]3(C)C[C@H]4O)OC[C@H](O)[C@@H]2O)[C@H](O)[C@H](O)[C@H]1O[C@@H]1OC[C@@H](O)[C@H](O[C@@H]2OC[C@@H](O)[C@H](O)[C@H]2O)[C@H]1O [ASTERLINGULATOSIDE]	6.1 µM
